Reference: paper doi:10.1101/2020.08.20.259572v2 (biorxiv, 2020)

T1: GlyT1b (hGlyT1b; Flag-Glyt1b) (Homo sapiens, UniProt P48067)
T1 sequence (P48067 15-652 isoform P48067-3): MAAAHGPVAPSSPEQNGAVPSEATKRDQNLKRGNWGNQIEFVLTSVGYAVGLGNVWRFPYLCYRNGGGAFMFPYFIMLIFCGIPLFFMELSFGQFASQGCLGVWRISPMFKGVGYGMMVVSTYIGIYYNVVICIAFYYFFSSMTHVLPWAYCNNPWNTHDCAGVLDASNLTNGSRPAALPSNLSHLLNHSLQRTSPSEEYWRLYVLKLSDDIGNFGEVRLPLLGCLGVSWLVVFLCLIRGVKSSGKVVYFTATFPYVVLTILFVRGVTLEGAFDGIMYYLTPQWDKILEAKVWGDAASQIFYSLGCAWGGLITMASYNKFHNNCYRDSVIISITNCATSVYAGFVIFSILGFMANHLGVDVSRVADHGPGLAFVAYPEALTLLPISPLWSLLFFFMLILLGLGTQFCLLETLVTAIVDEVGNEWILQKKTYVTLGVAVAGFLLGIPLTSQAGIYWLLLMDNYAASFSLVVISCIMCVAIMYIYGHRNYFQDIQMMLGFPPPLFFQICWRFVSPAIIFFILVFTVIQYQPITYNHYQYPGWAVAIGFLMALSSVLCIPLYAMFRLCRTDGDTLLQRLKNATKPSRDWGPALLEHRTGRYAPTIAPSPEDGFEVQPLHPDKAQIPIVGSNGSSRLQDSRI


Assays:
[1] = target: T1, GlyT1b (hGlyT1b; Flag-Glyt1b); assay: displacement of […] [3H]CHIBA-3007, membrane filtration assay; type: binding; conditions: 150 mM NaCl, 10 mM HEPES pH 7.4, RT
[2] = substrate: NCC(=O)O; assay: [3H]glycine uptake into transfected HEK MSR cells; type: cell-based, Homo sapiens; conditions: 0.05-200 µM glycine

Molecule	KI [1]	Km [2]
NCC(=O)O [glycine]	330 ± 10 µM	–
GlyT1b (hGlyT1b; Flag-Glyt1b) (Homo sapiens) (protein) MAAAHGPVAPSSPEQNGAVPSEATKRDQNLKRGNWGNQIEFVLTSVGYAVGLGNVWRFPYLCYRNGGGAFMFPYFIMLIFCGIPLFFMELSFGQFASQGCLGVWRISPMFKGVGYGMMVVSTYIGIYYNVVICIAFYYFFSSMTHVLPWAYCNNPWNTHDCAGVLDASNLTNGSRPAALPSNLSHLLNHSLQRTSPSEEYWRLYVLKLSDDIGNFGEVRLPLLGCLGVSWLVVFLCLIRGVKSSGKVVYFTATFPYVVLTILFVRGVTLEGAFDGIMYYLTPQWDKILEAKVWGDAASQIFYSLGCAWGGLITMASYNKFHNNCYRDSVIISITNCATSVYAGFVIFSILGFMANHLGVDVSRVADHGPGLAFVAYPEALTLLPISPLWSLLFFFMLILLGLGTQFCLLETLVTAIVDEVGNEWILQKKTYVTLGVAVAGFLLGIPLTSQAGIYWLLLMDNYAASFSLVVISCIMCVAIMYIYGHRNYFQDIQMMLGFPPPLFFQICWRFVSPAIIFFILVFTVIQYQPITYNHYQYPGWAVAIGFLMALSSVLCIPLYAMFRLCRTDGDTLLQRLKNATKPSRDWGPALLEHRTGRYAPTIAPSPEDGFEVQPLHPDKAQIPIVGSNGSSRLQDSRI	–	35.2 ± 2.1 µM
